Assay results: patent US20140096445A1, “METHOD OF CULTIVATION IN WATER DEFICIT CONDITIONS” (SYNGENTA PARTICIPATIONS AG, priority 2011, published 2014)
Marks after values point to notes of the source that are not given here.

Assays:
Type in all cases: in vivo
corn [1] = experiment: Greenhouse subsurface drip irrigation trial, deficit irrigated, Examples 4-8; conditions: for % Yield Increase by Product over Untr./50% Irr. / Yield: SDI chemigated at V3/V4, 50% irrigated deficit, Azoxystrobin 261, PPZ 126, TXP 250, PBZ 12.5, TMX 70 gai/ha; for Yield compared with the control, in words: water stress regime (50% irrigated), SDI
Protocol: (§1) A greenhouse subsurface drip irrigation trial was conducted on corn to evaluate treatment effects on yield in fully irrigated vs. deficit irrigated conditions. In this experiment, standardized growth conditions were applied across all corn treatments including: soil-water availability, soil texture and composition, soil chemical and physical properties, meteorological and environmental parameters, and plant nutrition in a greenhouse. No indication of plant disease or pest damage was observed over the course of the study and no pest management program was necessary. A homogeneous sand-organic matter soil mixture (0.18% organic matter) was used as the growth medium in 55-gal containers. These containers were used as a weighing lysimeter, where daily changes in system weight were used to calculate plant transpiration. Four corn plants were grown in each 55-gal container. Three 55-gal containers (12 plants total) made up each treatment. All irrigation and chemical treatments were applied via sub-surface irrigation. Chemical treatments consisted of: azoxystrobin (Quadris), paclobutrazol (Trimmit), trinexapac-ethyl (Moddus), and propiconazole (Tilt) at maximum labeled rates.
(§2) Corn plants were grown from seed and transplanted in the 55-gal drums approximately 14 days after planting. Uniform adequate irrigation was applied up to growth stage V3/V4 to ensure plant establishment. Chemical treatment applications were applied at growth stage V3/V4 via sub-surface chemigation. At stage V3/V4, irrigation was decreased to replicate deficit water conditions across all treatments for the remainder of the study period. Irrigation was managed daily to maintain 50% plant-available water. Visual signs of abiotic plant stress were observed approximately 30 days after chemical application. All corn plants were grown to yield and cobs were harvested when kernels were uniformly dry (15% moisture content). Root architecture, specifically relative number of fine roots, was measured at within 2 weeks of harvest using a digital imaging technique. Fine roots are related to water uptake productivity, which is directly tied to the ability of the plant to access soil-water under stress.

corn [2] = experiment: Greenhouse sub-surface chemigation, yield and root architecture under deficit water, Examples 20-23; conditions: for Yield (% difference from UTC) / Relative number of fine roots (% difference from UTC): sub-surface chemigation at V3/V4, maximum labeled rates, 50% plant-available water; for Relative number of fine roots (% difference from UTC): within 2 weeks of harvest
From the text: as §1, with “In” for “A greenhouse subsurface drip irrigation trial was conducted on corn to evaluate treatment effects on yield in fully irrigated vs. deficit irrigated conditions. In”
as §2

soybean [3] = experiment: Sprinkler irrigation field study on soybean yield, deficit vs fully irrigated, Examples 27-28
From the text: Testing Procedure: The overall objective was to conduct an irrigation management test to study the effects of fungicides and crop enhancement products on yield, WUE, and disease control under full irrigation and deficit irrigation conditions. This was a sprinkler irrigation field study conducted on a deep silt loam soil. The test was set up to specifically quantify the impact of azoxystrobin and acibenzolar-S-methyl on soybean yield and water productivity of soybean under limited (deficit) and fully-irrigated settings. The study utilized a sprinkler irrigation system. The study was replicated three times in an […]. Irrigation control panels, chemical injection pumps, and filters were housed at the irrigation well house to manage irrigation and chemigation events.
Soil water status was monitored throughout the growing season using soil moisture sensors. Soybean variety NK S31-L7 was planted on May 11, 2011 at the rate of 150,000 seed per acre. Testing parameters, and irrigation levels were conducted according to the University of Nebraska experimental procedure [see e.g., (1) Irmak, et. al.] Moisture levels, irrigation levels, evapotranspiration, and plant health were measured throughout the growing season. Climatic variables were measured (air temperature, rainfall, solar and net radiation, relative humidity, rainfall, wind speed and direction) throughout the season. Irrigation for the fully irrigated treatments was scheduled according to need by a climatic water budget using calculated evapotranspiration as a withdrawal and with rainfall and irrigation as deposits. […] Volumetric soil water content was measured in one-foot increments to a depth of 8 ft on an approximately weekly basis throughout the crop season to determine total water use. Crop water use was calculated as the sum of irrigation, precipitation and changes in soil water between the initial and final soil water sampling dates. Water productivity (WUE) was calculated as the crop yield divided by the seasonal water use (Water Productivity (WP)=Yield/ETc). […]

soybean [4] = experiment: Lateral-move sprinkler irrigation field study on soybean, Examples 29-30; conditions: soybean, sprinkler irrigation
soybean [5] = experiment: Sprinkler irrigation field study on soybean yield and WUE, Table 14 (treatments 31-32)
[6] = 60% irrigated deficit, Acibenzolar-S-methyl 10 gai/ha, Azoxy foliar 150 gai/ha + Acibenzolar-S-methyl 10 gai/ha

Compound | % Yield Increase by Product over Untr./50% Irr. (corn [1]) | Yield (corn [1]) | Yield compared with the control, in words (corn [1]) | Yield (% difference from UTC) (corn [2]) | Relative number of fine roots (% difference from UTC) (corn [2]) | Yield compared with the control, statistical statement (corn [2]; sub-surface chemigation, abiotic stress, P values <0.001 at the 95th percentile confidence interval) | Yield, statistical statement (soybean [3]; 60% Irrigation (deficit)) | % Yield Increase over Untr./60% irr. (soybean [3]; [6]) | Yield (soybean [3]; [6]) | Water productivity, in words (soybean [4]) | Yield compared with the untreated, in words (soybean [5]; Azoxystrobin: foliar (2 applications) at 60% & 100% irrigated) | WUE differences, in words (soybean [5]; water deficit regime)
CC(C)(C)[C@@H](O)[C@@H](Cc1ccc(Cl)cc1)n1cncn1 (racemic) [PBZ, paclobutrazol] | +16.6% Incr. over Untr./50% Irr. | 2152† Kg/Ha | statistically higher than the control | 16.6† % | 70.0† % | statistically different from the control |  |  |  |  |  | 
CSC(=O)c1cccc2nnsc12 [Acibenzolar-S-methyl, acibenzolar-S-methyl] |  |  |  |  |  |  | significant difference in yield | +1% over Untr./60% irr. | 53.1 Bu./acre | increase in water productivity | differences in yield over the untreated | Good WUE differences
CCCC1COC(Cn2cncn2)(c2ccc(Cl)cc2Cl)O1 (stereo not shown) [PPZ, propiconazole] | +3.3% Incr. over Untr./50% Irr. | 1906 Kg/Ha | statistically higher than the control | 3.3% | 39.4† % |  |  |  |  |  |  | 
CN1COCN(Cc2cnc(Cl)s2)/C1=N\[N+](=O)[O-] [TMX, thiamethoxam] | +4% Incr. over Untr./50% Irr. | 1916 Kg/Ha |  |  |  |  |  |  |  |  |  | 
